Measurements published in patent US6335371B1, “Method for inducing cognition enhancement” (Orion Corporation, priority 2000, dated 2002).

Columns and labels:
[1] = Randomised placebo-controlled double-blind study, cognitive part of Hamilton Anxiety Scale (HAM-A; concentration and memory items); type: in vivo
Procedure: (§1) The cognition enhancement properties of deramciclane were studied in a randomised placebo-controlled double-blind study. The subjects were randomly assigned to four parallel groups to receive one tablet twice daily (b.i.d) of a placebo, 5 mg (=10 mg/day), 15 mg (=30 mg/day), or 30 mg (=60 mg/day) deramciclane. The study started with a one-week placebo run-in period, followed by an eight-week placebo-controlled active treatment and a two-week placebo washout period.
(§2) The efficacy of deramciclane on cognition enhancement was studied using the cognitive part of Hamilton Anxiety Scale (HAM-A) which consists of the concentration and memory items. Cognition enhancement was also assessed using Udvalg for Kliniske Undersogelser (UKU) scale.

[2] = Randomised placebo-controlled double-blind study, Udvalg for Kliniske Undersogelser (UKU) scale, concentration difficulties; type: in vivo; settings: 5, 15, 30 mg b.i.d
Procedure: as §1, §2

Q: With `CN(C)CCO[C@]1(c2ccccc2)C[C@H]2CC[C@]1(C)C2(C)C` [deramciclane, (1R,2S,4R)-(−)-2-phenyl 2-(dimethylaminoethoxy)-1,7,7-trimethyl-bicyclo[2.2.1]heptane] as the molecule, how does the “HAM-A Intellectual, cognitive: subjects rated Mild, number (%)” value ([1]; After 8 weeks, 5 mg b.i.d) read?
A: 20 (47%)

Q: What about the “HAM-A Intellectual, cognitive: subjects rated Moderate, number (%)” value ([1]; After 8 weeks, 5 mg b.i.d) of the same molecule?
A: 6 (14%)

Q: What about the “HAM-A Intellectual, cognitive: subjects rated Not Present, number (%)” value ([1]; After 8 weeks, 5 mg b.i.d) of the same molecule?
A: 15 (35%)

Q: What about the “HAM-A Intellectual, cognitive: subjects rated Severe, number (%)” value ([1]; After 8 weeks, 5 mg b.i.d) of the same molecule?
A: 2 (5%)

Q: What about the “HAM-A Intellectual, cognitive: subjects rated Mild, number (%)” value ([1]; After 8 weeks, 15 mg b.i.d.) of the same molecule?
A: 19 (43%)

Q: And the “HAM-A Intellectual, cognitive: subjects rated Moderate, number (%)” value ([1]; After 8 weeks, 15 mg b.i.d.)?
A: 3 (7%)

Q: What about the “HAM-A Intellectual, cognitive: subjects rated Not Present, number (%)” value ([1]; After 8 weeks, 15 mg b.i.d.) of the same molecule?
A: 21 (48%)

Q: What about the “HAM-A Intellectual, cognitive: subjects rated Severe, number (%)” value ([1]; After 8 weeks, 15 mg b.i.d.) of the same molecule?
A: 1 (2%)

Q: What about the “HAM-A Intellectual, cognitive: subjects rated Mild, number (%)” value ([1]; After 8 weeks, 30 mg b.i.d.) of the same molecule?
A: 14 (30%)

Q: And the “HAM-A Intellectual, cognitive: subjects rated Moderate, number (%)” value ([1]; After 8 weeks, 30 mg b.i.d.)?
A: 10 (22%)

Q: And the “HAM-A Intellectual, cognitive: subjects rated Not Present, number (%)” value ([1]; After 8 weeks, 30 mg b.i.d.)?
A: 22 (48%)

Q: And the “HAM-A Intellectual, cognitive: subjects rated Severe, number (%)” value ([1]; After 8 weeks, 30 mg b.i.d.)?
A: 0

Q: What about the “HAM-A Intellectual, cognitive: subjects rated Mild, number (%)” value ([1]; Baseline, 5 mg b.i.d group) of the same molecule?
A: 17 (31%)

Q: What about the “HAM-A Intellectual, cognitive: subjects rated Moderate, number (%)” value ([1]; Baseline, 5 mg b.i.d group) of the same molecule?
A: 33 (61%)

Q: And the “HAM-A Intellectual, cognitive: subjects rated Not Present, number (%)” value ([1]; Baseline, 5 mg b.i.d group)?
A: 3 (6%)

Q: What about the “HAM-A Intellectual, cognitive: subjects rated Severe, number (%)” value ([1]; Baseline, 5 mg b.i.d group) of the same molecule?
A: 1 (2%)

Q: What about the “HAM-A Intellectual, cognitive: subjects rated Mild, number (%)” value ([1]; Baseline, 15 mg b.i.d. group) of the same molecule?
A: 12 (24%)

Q: What about the “HAM-A Intellectual, cognitive: subjects rated Moderate, number (%)” value ([1]; Baseline, 15 mg b.i.d. group) of the same molecule?
A: 35 (69%)

Q: What about the “HAM-A Intellectual, cognitive: subjects rated Not Present, number (%)” value ([1]; Baseline, 15 mg b.i.d. group) of the same molecule?
A: 3 (6%)

Q: What about the “HAM-A Intellectual, cognitive: subjects rated Severe, number (%)” value ([1]; Baseline, 15 mg b.i.d. group) of the same molecule?
A: 1 (2%)

Q: What about the “HAM-A Intellectual, cognitive: subjects rated Mild, number (%)” value ([1]; Baseline, 30 mg b.i.d. group) of the same molecule?
A: 15 (28%)

Q: And the “HAM-A Intellectual, cognitive: subjects rated Moderate, number (%)” value ([1]; Baseline, 30 mg b.i.d. group)?
A: 28 (53%)

Q: What about the “HAM-A Intellectual, cognitive: subjects rated Not Present, number (%)” value ([1]; Baseline, 30 mg b.i.d. group) of the same molecule?
A: 3 (6%)

Q: And the “HAM-A Intellectual, cognitive: subjects rated Severe, number (%)” value ([1]; Baseline, 30 mg b.i.d. group)?
A: 7 (13%)

Q: And the “Effect on cognition measured by the cognitive part of the HAM-A” value ([1]; eight-week treatment, 5, 15 or 30 mg b.i.d)?
A: improved the cognition

Q: What about the “Trend analysis (dose-response relationship), concentration difficulties, UKU-scale” value [2] of the same molecule?
A: statistically significant positive correlation
